Test results reported in publication PMC7588914, “Luminescence of Cypridina Luciferin in the Presence of Human Plasma Alpha 1-Acid Glycoprotein” (International Journal of Molecular Sciences, 2020).

System: T1, human plasma alpha 1-acid glycoprotein (hAGP)
T1 construct: gene ORM1; native, purified from human plasma (commercial, Sigma-Aldrich); secreted glycoprotein, signal peptide removed; plasma preparation is normally a mix of ORM1 and ORM2 products
Experiment: luminescence intensity, Michaelis-Menten fit
Type: biochemical
Settings: 50 mM Gly-NaOH pH 9.5, room temperature, 25 μg/mL hAGP; hAGP treated as a luciferase

Km: 0.46 µM
Structure (SMILES): CC[C@H](C)c1nc2c(CCCNC(=N)N)[nH]c(-c3c[nH]c4ccccc34)cn-2c1=O [Cypridina luciferin]
